Measured values reported in US12691092B2, “Method for reducing cutaneous skin scarring by pre-emptive priming and compounds and compositions for its implementation” (SOS SCIENCE OF SKIN LTD, priority 2020, dated 2026).

How the values were obtained:
VEGF-A = experiment: Gene expression analysis of VEGF-A; format: in vivo, human; conditions: week 4, groups 1-2 and 4, p<0.05
Procedure: (§1) A double-blind randomized placebo-controlled trial was conducted using a temporal punch-biopsy model. The punch biopsy and topical application methodology used in the study is illustrated in FIG. 1, namely showing pre-injury pre-emptive priming (7-days), pre-injury pre-emptive priming (3-days), day of injury (immediate application on day 0), post-injury (delayed 2 weeks post injury) including biopsy time points and time of topical applications. Each group applied both placebo and topical formulations twice daily for the duration of the study until week 8, with only the starting time point differing between groups Participants were split into 4 groups (n=10 in each group) in order to compare different modes (timings) of commencement of the topical application: • Group-1: Pre-emptive Priming (7-days): pre-injury • Group-2: Pre-emptive Priming (3-days): pre-injury • Group-3: Immediate (0-day): day-of-injury • Group-4: Delayed (14-days): post-injury Clinical quantitative devices were used to objectively monitor cutaneous healing at weekly intervals and punch biopsies were performed on day 0 (uninjured skin) and at weeks 4 and 8 for protein and gene expression analyses. […] Excisional skin biopsies in upper arms were evaluated weekly with multiple quantitative devices over an 8-week period. […]

[1] = system: human skin scarring model; experiment: Blood flow by dynamic optical coherence tomography (D-OCT); format: in vivo
Procedure: A double-blind randomized placebo-controlled trial was conducted using a temporal punch-biopsy model. The punch biopsy and topical application methodology used in the study is illustrated in FIG. 1, namely showing pre-injury pre-emptive priming (7-days), pre-injury pre-emptive priming (3-days), day of injury (immediate application on day 0), post-injury (delayed 2 weeks post injury) including biopsy time points and time of topical applications. Each group applied both placebo and topical formulations twice daily for the duration of the study until week 8, with only the starting time point differing between groups Participants were split into 4 groups (n=10 in each group) in order to compare different modes (timings) of commencement of the topical application: • Group-1: Pre-emptive Priming (7-days): pre-injury • Group-2: Pre-emptive Priming (3-days): pre-injury • Group-3: Immediate (0-day): day-of-injury • Group-4: Delayed (14-days): post-injury Clinical quantitative devices were used to objectively monitor cutaneous healing at weekly intervals and punch biopsies were performed on day 0 (uninjured skin) and at weeks 4 and 8 for protein and gene expression analyses. In the trial, topical EGCG and a placebo topical were applied twice daily for the duration of the trial until week 8 with only the starting time points differing between groups. Blood flow analysis using non-invasive objective measures, including full-field laser perfusion imaging (FLPI) and dynamic optical coherence tomography (D-OCT), was undertaken. Clinical images and the corresponding FLPI and D-OCT images are shown in FIGS. 6a, 6b and 6c respectively.

mast cells (MC) = experiment: Mast cell identification by MCT, MCC and CKit immunohistochemical markers in scar biopsies (double-blind placebo-controlled punch-biopsy trial); format: in vivo, human
Procedure: A double-blind randomized placebo-controlled trial was conducted using a temporal punch-biopsy model. The punch biopsy and topical application methodology used in the study is illustrated in FIG. 1, namely showing pre-injury pre-emptive priming (7-days), pre-injury pre-emptive priming (3-days), day of injury (immediate application on day 0), post-injury (delayed 2 weeks post injury) including biopsy time points and time of topical applications. Each group applied both placebo and topical formulations twice daily for the duration of the study until week 8, with only the starting time point differing between groups Participants were split into 4 groups (n=10 in each group) in order to compare different modes (timings) of commencement of the topical application: • Group-1: Pre-emptive Priming (7-days): pre-injury • Group-2: Pre-emptive Priming (3-days): pre-injury • Group-3: Immediate (0-day): day-of-injury • Group-4: Delayed (14-days): post-injury Clinical quantitative devices were used to objectively monitor cutaneous healing at weekly intervals and punch biopsies were performed on day 0 (uninjured skin) and at weeks 4 and 8 for protein and gene expression analyses. In the trial, topical EGCG and a placebo topical were applied twice daily for the duration of the trial until week 8 with only the starting time points differing between groups. Clinical and experimental analysis involved use of non-invasive devices as well as protein and gene studies. Excisional skin biopsies in upper arms were evaluated weekly with multiple quantitative devices over an 8-week period. Immunohistochemical analyses, mRNA sequencing and QRT-PCR were performed on tissue biopsies. MC identification was performed using mast cell tryptase (MCT), mast cell chymase (MCC) and CKit markers. […] The percentage differences between the change in placebo and EGCG for group-1 compared to group-2 was 58% (p=0.002), group-3 was 53% (p=0.003) and group-4 was 52% (p=0.005). […] The greatest difference was in group-1 compared to group-3 by 26% (p=0.02) and group-4 by 27% (p=0.02). Subsequent QRT-PCR analysis further confirmed down-regulation of MCT and MCC (p<0.05) in EGCG-treated samples at week-4 in all groups. MCT, MCC and CKit quantitative measurements are expressed in mm^2.

CD31 = experiment: QRT-PCR for CD31; format: in vivo, human; conditions: week 4, all groups
Procedure: as §1

[2] = weeks 4 and 8, all groups, p<0.01, topical twice daily

O=C(OC1Cc2c(O)cc(O)cc2OC1c1cc(O)c(O)c(O)c1)c1cc(O)c(O)c(O)c1 (single isomer, unassigned; (-)) [EGCG, (-)-epigallocatechin-3-gallate]
VEGF-A gene expression, EGCG-treated samples compared to placebo (VEGF-A): significant reductions
D-OCT blood flow, EGCG-treated compared to placebo ([1]; group-1 weeks 1-8, group-2 weeks 1-8, group-3 weeks 1-5, 7, 8, group-4 weeks 4-7, p<0.01): significantly decreased
D-OCT blood flow, group comparison, groups 1-3 vs group-4 ([1]; week 1, p<0.001, p=0.006, p=0.001): reduced blood flow more than group-4
D-OCT blood flow, group comparison, group-1 vs group-4 ([1]; week 2, p=0.016): greater difference than group-4
D-OCT blood flow, group comparison, group-2 vs groups-3 and -4 ([1]; week 8, p=0.003, p=0.002): reduced more than groups-3 and -4
Resident mast cell population in primed uninjured skin (mast cells (MC); primed uninjured skin prior to injury): reduces the resident mast cell population
MCC: larger difference of group-2 than group-4 (mast cells (MC); week 4, 3-day priming vs delayed, p=0.009): 29%
MCT: percentage difference between the change in placebo and EGCG, group-1 compared to group-2 (mast cells (MC); week 4, 7-day pre-injury priming vs 3-day priming, p=0.002): 58%
MCT: percentage difference between the change in placebo and EGCG, group-1 compared to group-4 (mast cells (MC); week 4, 7-day pre-injury priming vs delayed (14 days), p=0.005): 52%
MCT: percentage difference between the change in placebo and EGCG, group-1 compared to group-3 (mast cells (MC); week 4, 7-day pre-injury priming vs immediate (day 0), p=0.003): 53%
MCC: greater difference of group-1 than group-4 (mast cells (MC); week 4, 7-day priming vs delayed, p=0.001): 41%
CKit: difference of group-1 compared to group-4 (mast cells (MC); week 4, 7-day priming vs delayed, p=0.02): 27%
MCC: greater difference of group-1 than group-3 (mast cells (MC); week 4, 7-day priming vs immediate, p=0.01): 29%
CKit: difference of group-1 compared to group-3 (mast cells (MC); week 4, 7-day priming vs immediate, p=0.02): 26%
CKit positive cells, EGCG-treated scars compared to placebo-treated scars (mast cells (MC); [2]): significantly fewer positive cells
MCC positive cells, EGCG-treated scars compared to placebo-treated scars (mast cells (MC); [2]): significantly fewer positive cells
MCT positive cells, EGCG-treated scars compared to placebo-treated scars (mast cells (MC); [2]): significantly fewer positive cells
QRT-PCR CD31, EGCG-treated samples compared to placebo (CD31): significant down regulation
